Measured values as given in US20120277272A1, “Ethanamine Compounds and Methods of Using the Same” (priority 2008, published 2012).
pIC50, pKi: −log10 of the molar value. Where a name gives a salt, the structure may show the parent alone. Read-outs that look alike come from different tables or passages of the source.

What was measured:
Human NR1/NR2A channel = Human NR1/NR2A channel (Homo sapiens, UniProt Q05586+Q12879); assay: Automated patch clamp (QPatch16) block of NR1/NR2A channel currents in CHO-1H8 cells; type: cell-based
Method: Chinese Hamster Ovary (CHO-KI) cells were transfected with Effectene^R reagent following the manufacturer's instructions. Cells were triply transfected with plasmids pTet-Off, pTRE2-pur hNR1, and pGEN IRES Hyg-hNR2A. Transfection was done in medium containing Ham's F12, 10% FBS, 2 mM L-Glutamine, 200 μM ketamine and 2 μg/ml doxycycline. 24 hours post transfection, cells were split 1:10 into medium in which 200 μM ketamine was replaced with 20 μM MK-801. After an additional 24 hours (48 hours post transfection), antibiotic selection was performed as follows: 1 μg/ml puromycin, 500 μg/ml hygromycin, and 500 μg/ml geneticin (G418). After two weeks in the selection medium (with medium changes every 3-5 days), 15-20 clones developed in the flask. These clones were pooled and cultured for one more week. Cells were then clonally plated in two 96-well plates at 1 cell/well by limiting dilution. After three weeks, cells were trypsinized and each original 96-well plate was divided into two; one plate was cultured in the presence of 2 μg/ml doxycycline and the other was cultured for assay without doxycycline. After three days, the assay plates were screened for functional NMDAR expression by stimulating with 50 μM glycine/100 μM glutamate. Two positive clones were expanded and tested for glutamate dose response with glycine fixed at 30 μM. One clone, CHO-1H8 gave robust, dose-dependent response to glutamate and was selected for further characterization.
For routine culture, CHO-1H8 cells were maintained in Ham's F-12+2 mM L-Glutamine (PAA, E15-817), 10% FBS (Sigma, F7442), 1 μg/mL puromycin (Invitrogen A1113802), 250 μg/mL hygromycin (Invitrogen 10687010), 250 μg/mL geneticin (Invitrogen 11811-098), 1 μg/mL doxycycline (Sigma D9891), and 300 μM of the NMDA-channel blocker (R)-α-amino-6,7-dimethyl-3-(phosphonomethyl)-2-quinolinepropanoic acid (CAS 170847-87-7, Swahn et al., Bioorg. Med. Chem. Lett. 1996, 1635). Cells to be used in functional assay were grown in same medium as above, but with 1 μg/mL doxycycline replaced by 2 μg/mL tetracycline (Sigma T7660) three days before induction. Growth medium was replaced every 2-3 days, i.e. Monday-Wednesday-Friday. For induction of NMDAR expression, CHO-1H8 cells were cultured without doxycycline or tetracycline (but with CAS 170847-87-7) for 48 hours in medium prepared with Tet System-Approved FBS (BD Biosciences). […]
In order to evaluate effects of test compounds as inhibitors of NR1/NR2A channels, the channels were first activated by addition of a NMDAR agonist NMDA (Sigma, M3262) and Glycine (Merck, 3570) to the extracellular bath solution. […] NR1/NR2A currents were recorded for 12 sec after activation with 100 μM NMDA/10 μM Glycine (Icontrol). […]

NMDA receptor [1] = assay: NMDA trapping; type: cell-based; conditions: Table 4; as described in Mealing et al. 2001
Description: Trapping data was generated as described in Mealing et al., J. Pharmacol. Exp. Therapeutics 2001, (297/3), 906-914.

NMDA receptor [2] = target: T1, NMDA receptor; assay: MK801 binding inhibition (NMDA receptor antagonist activity in vitro); conditions: inhibition of MK801 binding to the NMDA receptor
T1 construct: Mean Ki; Mean Maximum effect
Method: (§1) NMDA receptor antagonist activity can be measured in vitro by assaying a compound's ability to inhibit binding of the receptor antagonist 10,11-dihydro-5-methyl-5H-dibenzo[a,d]-cyclohepten-5,10-imine (MK801) to the receptor. The method is described by Foster and Wong, Br. J. Pharmacol. 91, 403-409 (1987).
as §1, with “was” for “can be”, “10,11-dihdro-5-methyl-5H-dibenzo[a,d]-cyclohepten-5,10-imine” for “10,11-dihydro-5-methyl-5H-dibenzo[a,d]-cyclohepten-5,10-imine”

[3] = Table 4, NR1/NR2A currents, cells clamped at −60 mV, activated with 100 μM NMDA/10 μM Glycine, 0.41-33.33 μM compound, read-out: Mean IC50
[4] = Table 1, read-out: MK801 Binding IC50
[5] = Table 3, listed as Ex 8, fumarate salt

Sequence of Human NR1/NR2A channel (Q12879 23-1464, other chains not shown): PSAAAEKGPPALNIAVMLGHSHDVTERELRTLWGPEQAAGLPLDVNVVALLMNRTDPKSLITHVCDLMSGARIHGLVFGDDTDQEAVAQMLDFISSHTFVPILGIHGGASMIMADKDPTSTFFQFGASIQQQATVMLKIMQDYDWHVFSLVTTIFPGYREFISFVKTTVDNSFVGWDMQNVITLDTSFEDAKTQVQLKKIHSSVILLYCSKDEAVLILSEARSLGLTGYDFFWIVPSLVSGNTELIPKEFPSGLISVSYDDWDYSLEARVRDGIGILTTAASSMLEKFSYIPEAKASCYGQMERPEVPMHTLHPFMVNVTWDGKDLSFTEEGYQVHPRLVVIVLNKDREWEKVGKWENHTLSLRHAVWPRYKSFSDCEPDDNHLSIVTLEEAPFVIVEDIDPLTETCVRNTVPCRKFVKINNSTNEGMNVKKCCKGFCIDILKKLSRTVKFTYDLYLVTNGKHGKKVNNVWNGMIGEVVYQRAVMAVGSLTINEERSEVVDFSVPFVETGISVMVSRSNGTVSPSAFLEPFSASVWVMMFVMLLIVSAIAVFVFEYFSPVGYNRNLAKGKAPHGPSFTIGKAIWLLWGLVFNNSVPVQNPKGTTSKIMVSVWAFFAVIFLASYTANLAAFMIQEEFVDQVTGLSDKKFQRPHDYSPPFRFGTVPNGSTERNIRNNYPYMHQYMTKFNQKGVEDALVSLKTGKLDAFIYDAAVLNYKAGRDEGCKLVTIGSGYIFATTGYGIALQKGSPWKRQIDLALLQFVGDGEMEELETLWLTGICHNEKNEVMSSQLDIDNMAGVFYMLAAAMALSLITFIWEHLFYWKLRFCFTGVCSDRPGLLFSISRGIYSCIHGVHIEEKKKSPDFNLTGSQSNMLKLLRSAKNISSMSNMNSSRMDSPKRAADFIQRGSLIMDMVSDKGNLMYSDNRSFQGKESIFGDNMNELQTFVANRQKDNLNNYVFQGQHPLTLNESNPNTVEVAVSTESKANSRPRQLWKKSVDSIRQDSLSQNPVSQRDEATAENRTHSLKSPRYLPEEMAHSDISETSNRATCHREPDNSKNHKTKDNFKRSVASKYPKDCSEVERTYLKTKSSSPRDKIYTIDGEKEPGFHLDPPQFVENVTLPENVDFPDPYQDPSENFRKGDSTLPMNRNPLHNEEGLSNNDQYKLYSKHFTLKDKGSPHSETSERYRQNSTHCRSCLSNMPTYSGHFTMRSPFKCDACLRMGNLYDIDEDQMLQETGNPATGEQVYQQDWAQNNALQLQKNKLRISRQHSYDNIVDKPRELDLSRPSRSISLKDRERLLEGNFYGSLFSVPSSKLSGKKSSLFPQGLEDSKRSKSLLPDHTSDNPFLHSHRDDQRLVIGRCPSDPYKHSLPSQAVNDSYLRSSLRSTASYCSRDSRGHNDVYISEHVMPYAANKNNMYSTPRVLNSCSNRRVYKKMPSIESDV

With `CC(C)(c1ccccn1)[C@@H](N)c1ccccc1` [Example 3, (S)-2-methyl-1-phenyl-2-(pyridin-2-yl)propan-1-amine] as the compound, how does the pIC50 (Human NR1/NR2A channel; [3]) read?
Its pIC50 is 5.52.

And the Trapping (NMDA receptor [1])?
Its Trapping is 39%.

And the pIC50 (NMDA receptor [2]; [4])?
The pIC50 was 4.46.

What about the pKi (NMDA receptor [2]; Table 3, listed as Ex 3) of the same compound?
Its pKi is 5.74.

What about the “Mean Maximum effect” value (NMDA receptor [2]; Table 3, listed as Ex 3) of the same compound?
Its value is 76%.

And the pIC50 (NMDA receptor [2]; Table 3, listed as Ex 3, read-out: Mean IC50)?
Its pIC50 is 5.24.

For `CC(C)(c1ccccn1)[C@H](N)c1ccccc1` (as salt: HCl) [Example 2, (R)-2-methyl-1-phenyl-2-(pyridin-2-yl)propan-1-amine], which melting point is on record?
Its melting point is 188 °C.

With `CC(C)(c1ccccn1)C(N)c1cccc(F)c1.O=C(O)/C=C/C(=O)O` (single isomer, unassigned; stereoisomer 2) [Example 11, 1-(3-fluorophenyl)-2-methyl-2-(pyridin-2-yl)propan-1-amine fumarate salt, stereoisomer 2] as the compound, how does the pKi (NMDA receptor [2]; Table 3, listed as Ex 11) read?
Its pKi is 5.60.

And the “Mean Maximum effect” value (NMDA receptor [2]; Table 3, listed as Ex 11)?
Its value is 97%.

What about the pIC50 (NMDA receptor [2]; Table 3, listed as Ex 11, read-out: Mean IC50) of the same compound?
The pIC50 was 5.39.

With `CC(C)(c1ccccn1)[C@H](N)c1cccc(F)c1` [Example 5, (R)-1-(3-fluorophenyl)-2-methyl-2-(pyridin-2-yl)propan-1-amine] as the compound, how does the pIC50 (NMDA receptor [2]; [4]) read?
Its pIC50 is 5.26.

With `CC(C)(c1ccccn1)[C@H](N)c1ccccc1` [Example 2, (R)-2-methyl-1-phenyl-2-(pyridin-2-yl)propan-1-amine] as the compound, how does the pIC50 (Human NR1/NR2A channel; [3]) read?
The pIC50 was 5.00.

And the pIC50 (NMDA receptor [2]; [4])?
Its pIC50 is 5.19.

What about the pKi (NMDA receptor [2]; Table 3) of the same compound?
The pKi was less than 5.10.

And the “Mean Maximum effect” value (NMDA receptor [2]; Table 3)?
Its value is 64%.

And the pIC50 (NMDA receptor [2]; Table 3, read-out: Mean IC50)?
Its pIC50 is less than 4.60.

With `CC(C)(c1ccccn1)C(N)c1cccc(F)c1` (racemic) [Example 4, 1-(3-fluorophenyl)-2-methyl-2-(pyridin-2-yl)propan-1-amine] as the compound, how does the pIC50 (NMDA receptor [2]; [4]) read?
The pIC50 was 5.48.

With `N[C@@H](Cc1ccccn1)c1ccccc1` (single isomer, unassigned) [Example 13, dihydrochloride, reference compound] as the compound, how does the pIC50 (Human NR1/NR2A channel) read?
Its pIC50 is 5.22.

What about the Trapping (NMDA receptor [1]) of the same compound?
Its Trapping is 53%.

And the pKi (NMDA receptor [2]; Table 3)?
Its pKi is 5.54.

What about the “Mean Maximum effect” value (NMDA receptor [2]; Table 3) of the same compound?
Its value is 89%.

And the pIC50 (NMDA receptor [2]; Table 3, read-out: Mean IC50)?
Its pIC50 is 5.18.

With `N[C@H](Cc1ccccn1)c1ccccc1` (single isomer, unassigned) [Example 14, dihydrochloride, reference compound] as the compound, how does the pIC50 (Human NR1/NR2A channel) read?
Its pIC50 is 5.00.

With `CC(C)(c1ccccn1)[C@@H](N)c1ccccc1` [Example 8, (S)-2-methyl-1-phenyl-2-(pyridine-2-yl)propan-1-amine fumarate salt] as the compound, how does the pKi (NMDA receptor [2]; [5]) read?
Its pKi is 5.49.

And the “Mean Maximum effect” value (NMDA receptor [2]; [5])?
Its value is 90%.

And the pIC50 (NMDA receptor [2]; Table 3, listed as Ex 8, fumarate salt, read-out: Mean IC50)?
Its pIC50 is 5.29.

For `CC(C)(c1ccccn1)[C@@H](N)c1ccccc1` (as salt: HCl) [Example 3, (S)-2-methyl-1-phenyl-2-(pyridin-2-yl)propan-1-amine], which melting point is on record?
Its melting point is 188 °C.

With `CC(C)(c1ccccn1)C(N)c1cccc(F)c1.O=C(O)/C=C/C(=O)O` (single isomer, unassigned; stereoisomer 1) [Example 10, 1-(3-fluorophenyl)-2-methyl-2-(pyridin-2-yl)propan-1-amine fumarate salt, stereoisomer 1] as the compound, how does the pKi (NMDA receptor [2]; Table 3, listed as Ex 10) read?
The pKi was 4.82.

And the “Mean Maximum effect” value (NMDA receptor [2]; Table 3, listed as Ex 10)?
The value was 87%.

What about the pIC50 (NMDA receptor [2]; Table 3, listed as Ex 10, read-out: Mean IC50) of the same compound?
The pIC50 was 4.60.

With `CC(C)(c1ccccn1)C(N)c1cccc(F)c1.O=C(O)/C=C/C(=O)O` (racemic) [Example 9, 1-(3-Fluorophenyl)-2-methyl-2-(pyridin-2-yl)propan-1-amine fumarate salt, racemate] as the compound, how does the pKi (NMDA receptor [2]; Table 3) read?
The pKi was 5.89.

And the “Mean Maximum effect” value (NMDA receptor [2]; Table 3)?
Its value is 83%.

And the pIC50 (NMDA receptor [2]; Table 3, read-out: Mean IC50)?
The pIC50 was 5.49.

With `CC(C)(c1ccccn1)C(N)c1ccccc1` (racemic) [Example 1, 2-methyl-1-phenyl-2-(pyridin-2-yl)propan-1-amine] as the compound, how does the pIC50 (NMDA receptor [2]; [4]) read?
Its pIC50 is 4.92.

What about the pKi (NMDA receptor [2]; Table 3) of the same compound?
Its pKi is 5.31.

And the “Mean Maximum effect” value (NMDA receptor [2]; Table 3)?
The value was 75%.

And the pIC50 (NMDA receptor [2]; Table 3, read-out: Mean IC50)?
The pIC50 was 4.92.

With `CC(C)(c1ccccn1)[C@@H](N)c1cccc(F)c1` [Example 6, (S)-1-(3-fluorophenyl)-2-methyl-2-(pyridin-2-yl)propan-1-amine] as the compound, how does the pIC50 (NMDA receptor [2]; [4]) read?
Its pIC50 is 4.60.

With `CC(C)(c1ccccn1)C(N)c1ccccc1` (racemic) (as salt: hydrochloride) [Example 1, 2-methyl-1-phenyl-2-(pyridin-2-yl)propan-1-amine] as the compound, how does the melting point read?
Its melting point is 188 °C.
